Measurements: patent publication US20250290117A1, “MOLECULAR PHENOTYPIC ANTIMICROBIAL SUSCEPTIBILITY TESTING” (priority 2024, published 2025)

What was measured:
[1] = system: pathogens of clinical samples; test: Molecular phenotypic antimicrobial susceptibility test of clinical samples, extraction DNA purification step prior to PCR (Table 6); format: cell-based
Method: (§1) Detection of Molecular Phenotypic Antimicrobial Susceptibility. Disclosed herein are the methods for the detection of phenotypic antimicrobial susceptibility via molecular methods. The present invention describes how a specimen 100 with a known microbial load is incubated and then exposed to a panel of antimicrobial agents to determine sensitivity (prevention of growth) or resistance (allowance of growth) to the specific antimicrobial agents tested utilizing molecular methods.
(§2) Sample Collection. Specimens 100 are collected from patients using sterile collection processes that are employed in routine clinical care. Specimens are transported to the testing facility in boric acid preservative.
(§3) Preparation of the Specimens for Testing. […] The process for pathogen isolation includes steps of harvesting the pathogen (e.g., via centrifugation), isolating pathogen DNA via a DNA isolation and/or purification kit, and performing PCR on the pathogen DNA via PCR components (e.g., primers, enzymes, buffers) as would be known to the skilled artisan. […] This aliquot is used for antimicrobial susceptibility testing if indicated based on the pathogen detection results. […] Specimens 100 with lower pathogen loads could also be utilized in the antibiotic susceptibility phase of testing with or without a longer incubation period.
(§4) Preparation of Antimicrobial Susceptibility Testing Plates. Antimicrobial solutions are prepared at known concentrations. The specific antimicrobials and their concentrations are selected based on the pathogen of interest and the described antimicrobial resistance breakpoints for that specimen pathogen and antimicrobial combination. These antimicrobials have been selected based on those commonly utilized by healthcare providers in routine clinical care for the specific type of suspected infection. The number and types of antimicrobials utilized can be customized based on the infection source, pathogen detected, patient-specific factors such as allergies or other health conditions (e.g., chronic kidney disease or concurrent medication use), or healthcare provider preferences such as antimicrobial availability or cost.
(§5) The antimicrobial solutions are prepared in liquid culture media (such as Muller Hinton Broth) to achieve the desired antimicrobial concentration and are then stored at −80° C. until use. For a given specimen, each antimicrobial is tested at a single or multiple antimicrobial concentration(s) which is its established breakpoints for sensitivity. The antimicrobial solutions are prepared and plated out for each specific pathogen. […] This allows for evaluation of pathogen load when no antimicrobial is present.
(§6) Specimen Exposure to Antimicrobial Agents. The 1 mL aliquot of the specimen 100 previously mixed with culture media and incubated is obtained. Using optical density measurements as a guide, the specimen 100 is diluted to 0.5 McFarland.
(§7) Antimicrobial exposure plates are typically placed into an incubator for 12-16 hours.
(§8) Nucleic Acid Amplification of Antimicrobial Agent Exposed Pathogens. The antimicrobial exposure plate is removed after the period of incubation. The specimen then undergoes a purification or lysis step. For example, the specimen may undergo a purification step (e.g., magnetic bead-based or other separation protocol to isolate genetic material). In another example, the specimen may undergo a cell lysis step. For example, buffer (e.g., lysis buffer) may be added and incubated in the thermal cycler for preparation for direct PCR. Next, the specimen may undergo a polymerase chain reaction (PCR) testing protocol, whereby a semi-quantitative PCR method is utilized. This may be completed either with or without a specific extraction protocol step. The pathogens can be individually targeted and detected, or a universal genetic sequence can be utilized to detect the antimicrobial susceptibility of the specimen as a whole.

[2] = system: pathogens of clinical samples; test: Molecular phenotypic antimicrobial susceptibility test of clinical samples, direct PCR without a separate DNA purification step (Table 6); format: cell-based
Method: as §1, §2, §3, §4, §5, §6, §7, §8

[3] = E. coli, clinical sample of r10-r24
[4] = E. coli, clinical sample of r158-r172
[5] = E. faecalis, clinical sample of r93-r99
[6] = E. faecalis, clinical sample of r100-r106
[7] = E. faecalis, clinical sample of r114-r120
[8] = K. aerogenes, clinical sample of r136-r150
[9] = K. pneumoniae, clinical sample of r121-r135
[10] = M. morganii, clinical sample of r55-r69
[11] = M. morganii, clinical sample of r70-r84
[12] = P. mirabilis, clinical sample of r25-r39
[13] = P. mirabilis, clinical sample of r40-r54
[14] = S. aureus, clinical sample of r85-r92

`CN(C)[C@@H]1C(O)=C(C(N)=O)C(=O)[C@@]2(O)C(O)=C3C(=O)c4c(O)cccc4[C@@](C)(O)[C@H]3C[C@@H]12` [Tetracycline] was tested, and the “Molecular Antibiotic Susceptibility Result” value [1, 3] was “Sensitive (Antimicrobial wells with pathogen load detected below the control wells (typically >2 cycle thresholds later) may be reported as Sensitive)”, the Ct ([1]; E. coli, clinical sample of r10-r24, Ct Control Avg 18.112) was 28.574 and the “Molecular Antibiotic Susceptibility Result” value [1, 4] was “Sensitive (Antimicrobial wells with pathogen load detected below the control wells (typically >2 cycle thresholds later) may be reported as Sensitive)”. For the same compound, the Ct ([1]; E. coli, clinical sample of r158-r172, Ct Control Avg 20.146) was 34.28, the “Molecular Antibiotic Susceptibility Result” value [1, 5] was “Resistant” and the Ct ([1]; E. faecalis, clinical sample of r93-r99, Ct Control Avg 22.987) was 19.484. The “Molecular Antibiotic Susceptibility Result” value [1, 6] was “Resistant”, the Ct ([1]; E. faecalis, clinical sample of r100-r106, Ct Control Avg 23.073) was 23.171 and the Ct ([1]; E. faecalis, clinical sample of r107-r113, Ct Control Avg 22.144) was 28.949. For the same compound, the “Molecular Antibiotic Susceptibility Result” value [1, 7] was “Resistant”, the Ct ([1]; E. faecalis, clinical sample of r114-r120, Ct Control Avg 20.822) was 21.77 and the Ct ([1]; E. faecalis, clinical sample of r151-r157, Ct Control Avg 20.56) was 23.723. For the same compound, the “Molecular Antibiotic Susceptibility Result” value [1, 8] was “Sensitive (Antimicrobial wells with pathogen load detected below the control wells (typically >2 cycle thresholds later) may be reported as Sensitive)”, the Ct ([1]; K. aerogenes, clinical sample of r136-r150, Ct Control Avg 19.994) was 37.04 and the “Molecular Antibiotic Susceptibility Result” value [1, 9] was “Sensitive (Antimicrobial wells with pathogen load detected below the control wells (typically >2 cycle thresholds later) may be reported as Sensitive)”. The Ct ([1]; K. pneumoniae, clinical sample of r121-r135, Ct Control Avg 24.272) was 30.426, the “Molecular Antibiotic Susceptibility Result” value [1, 10] was “Resistant” and the Ct ([1]; M. morganii, clinical sample of r55-r69, Ct Control Avg 28.86) was 26.617. For the same compound, the “Molecular Antibiotic Susceptibility Result” value [1, 11] was “Sensitive (Antimicrobial wells with pathogen load detected below the control wells (typically >2 cycle thresholds later) may be reported as Sensitive)”, the “Molecular Antibiotic Susceptibility Result” value [1, 12] was “Resistant” and the Ct ([1]; P. mirabilis, clinical sample of r25-r39, Ct Control Avg 26.064) was 24.94. For the same compound, the “Molecular Antibiotic Susceptibility Result” value [1, 13] was “Resistant”, the Ct ([1]; P. mirabilis, clinical sample of r40-r54, Ct Control Avg 26.987) was 23.424 and the “Molecular Antibiotic Susceptibility Result” value [1, 14] was “Resistant”. The Ct ([1]; S. aureus, clinical sample of r85-r92, Ct Control Avg 24.32) was 15.029, the “Molecular Antibiotic Susceptibility Result” value [2, 3] was “Sensitive (Antimicrobial wells with pathogen load detected below the control wells (typically >2 cycle thresholds later) may be reported as Sensitive)” and the Ct ([2]; E. coli, clinical sample of r10-r24, Ct control avg 12.97) was 26.521. For the same compound, the “Molecular Antibiotic Susceptibility Result” value [2, 4] was “Sensitive (Antimicrobial wells with pathogen load detected below the control wells (typically >2 cycle thresholds later) may be reported as Sensitive)”, the Ct ([2]; E. coli, clinical sample of r158-r172, Ct control avg 12.894) was 30.717 and the “Molecular Antibiotic Susceptibility Result” value [2, 5] was “Resistant”. The Ct ([2]; E. faecalis, clinical sample of r93-r99, Ct control avg 22.011) was 21.199, the “Molecular Antibiotic Susceptibility Result” value [2, 6] was “Resistant” and the Ct ([2]; E. faecalis, clinical sample of r100-r106, Ct control avg 21.027) was 20.684. For the same compound, the Ct ([2]; E. faecalis, clinical sample of r107-r113, Ct control avg 20.529) was 28.789, the “Molecular Antibiotic Susceptibility Result” value [2, 7] was “Resistant” and the Ct ([2]; E. faecalis, clinical sample of r114-r120, Ct control avg 20.909) was 21.446. The Ct ([2]; E. faecalis, clinical sample of r151-r157, Ct control avg 18.551) was 21.132, the “Molecular Antibiotic Susceptibility Result” value [2, 8] was “Sensitive (Antimicrobial wells with pathogen load detected below the control wells (typically >2 cycle thresholds later) may be reported as Sensitive)” and the Ct ([2]; K. aerogenes, clinical sample of r136-r150, Ct control avg 13.854) was 30.787. For the same compound, the “Molecular Antibiotic Susceptibility Result” value [2, 9] was “Sensitive (Antimicrobial wells with pathogen load detected below the control wells (typically >2 cycle thresholds later) may be reported as Sensitive)”, the Ct ([2]; K. pneumoniae, clinical sample of r121-r135, Ct control avg […]) was 27.163 and the “Molecular Antibiotic Susceptibility Result” value [2, 10] was “Resistant”. For the same compound, the Ct ([2]; M. morganii, clinical sample of r55-r69, Ct control avg 12.09) was 9.923, the “Molecular Antibiotic Susceptibility Result” value [2, 11] was “Resistant” and the Ct ([2]; M. morganii, clinical sample of r70-r84, Ct control avg 11.677) was 12.206. For the same compound, the “Molecular Antibiotic Susceptibility Result” value [2, 12] was “Resistant”, the Ct ([2]; P. mirabilis, clinical sample of r25-r39, Ct control avg 11.801) was 10.301 and the “Molecular Antibiotic Susceptibility Result” value [2, 13] was “Resistant”. For the same compound, the Ct ([2]; P. mirabilis, clinical sample of r40-r54, Ct control avg 10.06) was 11.498, the “Molecular Antibiotic Susceptibility Result” value [2, 14] was “Resistant” and the Ct ([2]; S. aureus, clinical sample of r85-r92, Ct control avg 20.309) was 22.653.
